# Experimental data reported in the supplement of paper PMC10733146.
# How the values were obtained:
# Assay in all cases: viability relative to DMSO control (fraction); higher = less drug effect (more viable cells)
# Settings in all cases: 48 h
# [1] = tested on: primary AML patient cells (S055)
# Procedure, shortened: (§1)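 Compounds were pre-plated at five concentrations, one well each, in 384-well plates, and primary mononuclear tumour cells were plated on them at 4 × 10^4 cells per well. The cells, fresh or cryopreserved, had been Ficoll-isolated from blood or bone marrow or taken from processed lymph node. After 48 h at 37 °C and 5% CO2 in RPMI-1640 with penicillin/streptomycin, L-glutamine and human serum, viability was read as CellTiter-Glo luminescence relative to the median of 16 inner DMSO wells.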
# [2] = tested on: primary AML patient cells (S037)
# Procedure, shortened: as §1
# [3] = tested on: primary AML patient cells (S089)
# Procedure, shortened: as §1
# [4] = tested on: primary CLL patient cells (S031)
# Procedure, shortened: as §1
# [5] = tested on: primary T-PLL patient cells (S008)
# Procedure, shortened: as §1
# [6] = tested on: primary MCL patient cells (S053)
# Procedure, shortened: as §1
# [7] = tested on: primary DLBCL patient cells (S082)
# Procedure, shortened: as §1
# [8] = tested on: primary FL patient cells (S087)
# Procedure, shortened: as §1
# [9] = tested on: primary AML patient cells (S056)
# Procedure, shortened: as §1
# [10] = tested on: primary FL patient cells (S022)
# Procedure, shortened: as §1
# [11] = tested on: primary AML patient cells (S072)
# Procedure, shortened: as §1
# [12] = tested on: primary MCL patient cells (S068)
# Procedure, shortened: as §1
# [13] = tested on: primary AML patient cells (S091)
# Procedure, shortened: as §1
# [14] = tested on: primary AML patient cells (S079)
# Procedure, shortened: as §1
# [15] = tested on: primary AML patient cells (S006)
# Procedure, shortened: as §1
# [16] = tested on: primary MCL patient cells (S041)
# Procedure, shortened: as §1
# [17] = tested on: primary AML patient cells (S012)
# Procedure, shortened: as §1
# [18] = tested on: primary ALL patient cells (S048)
# Procedure, shortened: as §1
# [19] = tested on: primary AML patient cells (S009)
# Procedure, shortened: as §1
# [20] = tested on: primary MCL patient cells (S063)
# Procedure, shortened: as §1
compound,measurement,setting,value
N#Cc1ccnc(N2C(=O)CC[C@H]2C(=O)N(c2cncc(F)c2)[C@H](C(=O)NC2CC(F)(F)C2)c2ccccc2Cl)c1 [AG-120],viability,[1]; 0.024 µM,1.11
same,viability,[1]; 0.12 µM,1.13
same,viability,[1]; 0.6 µM,1.01
same,viability,[1]; 3 µM,1.09
same,viability,[1]; 15 µM,0.964
same,viability,[2]; 0.024 µM,1.04
same,viability,[2]; 0.12 µM,1.04
same,viability,[2]; 0.6 µM,0.952
same,viability,[2]; 3 µM,1.01
same,viability,[2]; 15 µM,0.888
same,viability,[3]; 0.024 µM,0.664
same,viability,[3]; 0.12 µM,0.916
same,viability,[3]; 0.6 µM,0.818
same,viability,[3]; 3 µM,0.903
same,viability,[3]; 15 µM,0.827
same,viability,[4]; 0.024 µM,0.982
same,viability,[4]; 0.12 µM,0.912
same,viability,[4]; 0.6 µM,0.773
same,viability,[4]; 3 µM,0.807
same,viability,[4]; 15 µM,0.715
same,viability,[5]; 0.024 µM,1.04
same,viability,[5]; 0.12 µM,1.09
same,viability,[5]; 0.6 µM,1.03
same,viability,[5]; 3 µM,1.04
same,viability,[5]; 15 µM,1.02
same,viability,[6]; 0.024 µM,0.945
same,viability,[6]; 0.12 µM,0.911
same,viability,[6]; 0.6 µM,0.593
same,viability,[6]; 3 µM,0.887
same,viability,[6]; 15 µM,0.641
same,viability,[7]; 0.024 µM,1.03
same,viability,[7]; 0.12 µM,1.06
same,viability,[7]; 0.6 µM,0.895
same,viability,[7]; 3 µM,1.05
same,viability,[7]; 15 µM,0.935
same,viability,[8]; 0.024 µM,0.946
same,viability,[8]; 0.12 µM,0.984
same,viability,[8]; 0.6 µM,0.911
same,viability,[8]; 3 µM,1.01
same,viability,[8]; 15 µM,0.892
same,viability,[9]; 0.024 µM,0.866
same,viability,[9]; 0.12 µM,0.833
same,viability,[9]; 0.6 µM,0.72
same,viability,[9]; 3 µM,0.74
same,viability,[9]; 15 µM,0.577
same,viability,[10]; 0.024 µM,0.858
same,viability,[10]; 0.12 µM,0.833
same,viability,[10]; 0.6 µM,0.838
same,viability,[10]; 3 µM,0.905
same,viability,[10]; 15 µM,0.777
same,viability,[11]; 0.024 µM,0.983
same,viability,[11]; 0.12 µM,1.1
same,viability,[11]; 0.6 µM,0.87
same,viability,[11]; 3 µM,0.919
same,viability,[11]; 15 µM,0.799
same,viability,[12]; 0.024 µM,0.995
same,viability,[12]; 0.12 µM,1.02
same,viability,[12]; 0.6 µM,0.898
same,viability,[12]; 3 µM,1.05
same,viability,[12]; 15 µM,1.18
same,viability,[13]; 0.024 µM,1.02
same,viability,[13]; 0.12 µM,0.975
same,viability,[13]; 0.6 µM,1.03
same,viability,[13]; 3 µM,1.56
same,viability,[13]; 15 µM,1.03
same,viability,[14]; 0.024 µM,0.978
same,viability,[14]; 0.12 µM,0.983
same,viability,[14]; 0.6 µM,0.879
same,viability,[14]; 3 µM,0.959
same,viability,[14]; 15 µM,0.844
same,viability,[15]; 0.024 µM,1.07
same,viability,[15]; 0.12 µM,1.13
same,viability,[15]; 0.6 µM,0.986
same,viability,[15]; 3 µM,1.08
same,viability,[15]; 15 µM,0.901
same,viability,[16]; 0.024 µM,0.99
same,viability,[16]; 0.12 µM,1.01
same,viability,[16]; 0.6 µM,0.928
same,viability,[16]; 3 µM,1
same,viability,[16]; 15 µM,0.886
same,viability,[17]; 0.024 µM,1.03
same,viability,[17]; 0.12 µM,1.06
same,viability,[17]; 0.6 µM,1.04
same,viability,[17]; 3 µM,0.987
same,viability,[17]; 15 µM,0.985
same,viability,[18]; 0.024 µM,0.828
same,viability,[18]; 0.12 µM,0.865
same,viability,[18]; 0.6 µM,0.735
same,viability,[18]; 3 µM,1.01
same,viability,[18]; 15 µM,0.745
same,viability,[19]; 0.024 µM,0.974
same,viability,[19]; 0.12 µM,0.96
same,viability,[19]; 0.6 µM,1.04
same,viability,[19]; 3 µM,0.943
same,viability,[19]; 15 µM,0.915
same,viability,[20]; 0.024 µM,1.16
same,viability,[20]; 0.12 µM,1.1
same,viability,[20]; 0.6 µM,0.929
same,viability,[20]; 3 µM,1.15
same,viability,[20]; 15 µM,0.789
